These are literature values, as cited in patent publication US9381163B2, “Floating capsules encapsulating particles loaded with one or more drugs” (NANYANG TECHNOLOGICAL UNIVERSITY, priority 2012, dated 2016).

In general, log P refers to a log measure of how a compound divides between an organic and an aqueous phase. For the substance metoprolol tartrate salt, the “log P” value was 1.6.
